The structures appear in SMILES notation.

In this assay the target is CFTR (Homo sapiens, UniProt P13569). As to the kind of experiment: Membrane Potential Dye, Enteroid Assay A. The following applies: for EC50: read-out: Ent. A EC50. It is filed as cell-based. On the procedure: Base medium (ADF+++) consisted of Advanced […], 2 mM Glutamax, 10 mM HEPES, 1 μg/mL penicillin/streptomycin.
Intestinal enteroid maintenance medium (IEMMN) consisted of ADF+++, 1× B27 supplement, 1× N2 supplement, 1.25 mM N-acetyl cysteine, 10 mM Nicotinamide, 50 ng/mL hEGF, 10 nM Gastrin, 1 μg/mL hR-spondin-1, 100 ng/mL hNoggin, TGF-b type 1 inhibitor A-83-01, 100 μg/mL Primocin, 10 μM P38 MAPK inhibitor SB202190.
Bath 1 Buffer consisted of 1 mM MgCl2, 160 mM NaCl, 4.5 mM KCl, 10 mM HEPES, 10 mM Glucose, 2 mM CaCl2).
Chloride Free Buffer consisted of 1 mM Magnesium Gluconate, 2 mM Calcium Gluconate, 4.5 mM Potassium Gluconate, 160 mM Sodium Gluconate, 10 mM HEPES, 10 mM Glucose.
Bath 1 Dye Solution consisted of Bath 1 Buffer, 0.04% Pluronic F127, 20 μM Methyl Oxonol, 30 μM CaCCinh-A01, 30 μM Chicago Sky Blue.
Chloride Free Dye Solution consisted of Chloride Free Buffer, 0.04% Pluronic F127, 20 μM Methyl Oxonol, 30 μM CaCCinh-A01, 30 μM Chicago Sky Blue.
Chloride Free Dye Stimulation Solution consisted of Chloride Free Dye Solution, 10 μM forskolin, 100 μM IBMX, and 300 nM Compound III.
Human intestinal epithelial enteroid cells were obtained from the Hubrecht Institute for Developmental Biology and Stem Cell Research, Utrecht, The Netherlands and expanded in T-Flasks as previously described (Dekkers J F, Wiegerinck C L, de Jonge H R, Bronsveld I, Janssens H M, de Winter-de Groot K M, Brandsma A M, de Jong N W M, Bijvelds M J C, Scholte B J, Nieuwenhuis E E S, van den Brink S, Clevers H, van der Ent C K, Middendorp S and M Beekman J M. A functional CFTR assay using primary cystic fibrosis intestinal organoids. Nat Med. 2013 July; 19(7):939-45.).
3. Enteroid Cell Harvesting and Seeding
Cells were recovered in cell recovery solution, collected by centrifugation at 650 rpm for 5 min at 4° C., resuspended in TrypLE and incubated for 5 min at 37° C. Cells were then collected by centrifugation at 650 rpm for 5 min at 4° C. and resuspended in IEMM containing 10 μM ROCK inhibitor (RI). The cell suspension was passed through a 40 μm cell strainer and resuspended at 1×10^6 cells/mL in IEMM containing 10 μM RI. Cells were seeded at 5000 cells/well into multi-well plates and incubated for overnight at 37° C., 95% humidity and 5% CO2 prior to assay.
4. Membrane Potential Dye, Enteroid Assay A
Enteroid cells were incubated with test compound in IEMM for 18-24 hours at 37° C., 95% humidity and 5% CO2. […] Briefly, cells were washed 5 times in Bath 1 Buffer. Bath 1 Dye Solution was added, and the cells were incubated for 25 min at room temperature. Following dye incubation, cells were washed 3 times in Chloride Free Dye Solution. Chloride transport was initiated by addition of Chloride Free Dye Stimulation Solution and the fluorescence signal was read for 15 min. […] Chloride transport was then expressed as a percentage of the chloride transport following treatment with 3 μM N-[(6-amino-2-pyridyl)sulfonyl]-6-(3-fluoro-5-isobutoxy-phenyl)-2-[(4S)-2,2,4-trimethylpyrrolidin-1-yl]pyridine-3-carboxamide, 3 μM (R)-1-(2,2-difluorobenzo[d][1,3]dioxol-5-yl)-N-(1-(2,3-dihydroxypropyl)-6-fluoro-2-(1-hydroxy-2-methylpropan-2-yl)-1H-indol-5-yl)cyclopropanecarboxamide and 300 nM acute N-[2,4-bis(1,1-dimethylethyl)-5-hydroxyphenyl]-1,4-dihydro-4-oxoquinoline-3-carboxamide triple combination control (% Activity).

CFTR, sequence (P13569 with tags, fused parts or gaps DEL508-508): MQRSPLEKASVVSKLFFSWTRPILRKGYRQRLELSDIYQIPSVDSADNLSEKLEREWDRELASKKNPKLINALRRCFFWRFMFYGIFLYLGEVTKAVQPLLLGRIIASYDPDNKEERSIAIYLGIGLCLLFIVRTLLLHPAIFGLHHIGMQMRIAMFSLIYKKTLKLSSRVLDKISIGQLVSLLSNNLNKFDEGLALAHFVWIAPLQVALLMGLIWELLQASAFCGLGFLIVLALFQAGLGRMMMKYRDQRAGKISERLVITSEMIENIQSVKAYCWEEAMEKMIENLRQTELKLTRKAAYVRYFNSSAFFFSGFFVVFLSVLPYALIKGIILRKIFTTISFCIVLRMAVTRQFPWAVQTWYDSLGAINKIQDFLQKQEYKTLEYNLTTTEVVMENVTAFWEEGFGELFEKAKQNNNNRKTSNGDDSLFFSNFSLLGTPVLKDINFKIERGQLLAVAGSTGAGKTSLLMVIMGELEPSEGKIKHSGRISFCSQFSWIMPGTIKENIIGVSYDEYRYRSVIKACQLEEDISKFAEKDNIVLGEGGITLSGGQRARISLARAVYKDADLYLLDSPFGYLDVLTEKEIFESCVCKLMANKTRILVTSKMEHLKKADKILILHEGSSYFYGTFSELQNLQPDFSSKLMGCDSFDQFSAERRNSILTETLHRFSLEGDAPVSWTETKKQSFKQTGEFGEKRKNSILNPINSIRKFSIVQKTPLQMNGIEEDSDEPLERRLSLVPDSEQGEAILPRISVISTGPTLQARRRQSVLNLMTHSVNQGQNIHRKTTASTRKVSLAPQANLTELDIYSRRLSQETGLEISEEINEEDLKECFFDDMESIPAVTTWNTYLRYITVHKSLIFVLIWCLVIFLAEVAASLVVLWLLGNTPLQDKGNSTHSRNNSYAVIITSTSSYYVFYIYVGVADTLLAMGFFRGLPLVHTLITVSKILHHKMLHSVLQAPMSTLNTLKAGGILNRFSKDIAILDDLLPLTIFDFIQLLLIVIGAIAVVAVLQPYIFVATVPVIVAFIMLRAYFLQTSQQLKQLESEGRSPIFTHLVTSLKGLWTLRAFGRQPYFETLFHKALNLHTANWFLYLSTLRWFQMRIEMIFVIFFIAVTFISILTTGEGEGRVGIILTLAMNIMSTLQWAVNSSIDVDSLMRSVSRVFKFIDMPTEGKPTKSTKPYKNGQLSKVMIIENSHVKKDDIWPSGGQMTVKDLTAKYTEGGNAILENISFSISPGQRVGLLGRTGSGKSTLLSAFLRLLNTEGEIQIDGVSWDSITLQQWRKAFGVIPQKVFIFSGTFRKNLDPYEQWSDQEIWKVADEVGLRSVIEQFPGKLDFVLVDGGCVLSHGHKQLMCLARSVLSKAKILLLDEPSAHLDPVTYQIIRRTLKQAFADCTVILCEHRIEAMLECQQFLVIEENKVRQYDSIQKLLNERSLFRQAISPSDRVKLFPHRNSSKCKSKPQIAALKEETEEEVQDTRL

For `Cc1cccc(C)c1-c1cc2nc(n1)NS(=O)(=O)c1cccc(c1)C(=O)N(C1CC3(CCN(C(C)C)CC3)C1)[C@H](CC(C)C)CO2` [Compound 17, (11R)-6-(2,6-Dimethylphenyl)-11-isobutyl-12-(7-isopropyl-7-azaspiro[3.5]nonan-2-yl)-2,2-dioxo-9-oxa-2λ^6-thia-3,5,12,19-tetrazatricyclo[12.3.1.14,8]nonadeca-1(18),4(19),5,7,14,16-hexaen-13-one], the “Ent. A Max Activity (%)” value is recorded as “+++ (+++ is >60%)” and the EC50 was < 1000 nM.
Turning to `Cc1cccc(C)c1-c1cc2nc(n1)NS(=O)(=O)c1cccc(c1)C(=O)N(C1CCC1)[C@H](CC(C)C)CO2` [Compound 27, (11R)-12-cyclobutyl-6-(2,6-dimethylphenyl)-11-isobutyl-2,2-dioxo-9-oxa-2λ^6-thia-3,5,12,19-tetrazatricyclo[12.3.1.14,8]nonadeca-1(18),4(19),5,7,14,16-hexaen-13-one], the “Ent. A Max Activity (%)” value is given as “++ (++ is 30-60%)” and the half-maximal effective concentration (EC50) was < 1000 nM.
The like results for `Cc1cccc(C)c1-c1cc2nc(n1)NS(=O)(=O)c1cccc(c1)C(=O)N(C1CC3(COC3)C1)[C@H](CC(C)C)CO2` [Compound 29, (11R)-6-(2,6-Dimethylphenyl)-11-isobutyl-12-(2-oxaspiro[3.3]heptan-6-yl)-2,2-dioxo-9-oxa-2λ^6-thia-3,5,12,19-tetrazatricyclo[12.3.1.14,8]nonadeca-1(18),4(19),5,7,14,16-hexaen-13-one] were, in that order, “+++ (+++ is >60%)” and < 1000 nM.
With `Cc1cccc(C)c1-c1cc2nc(n1)NS(=O)(=O)c1cccc(c1)C(=O)N(C1CCCC1)[C@H](CC(C)C)CO2` [Compound 30, (11R)-12-Cyclopentyl-6-(2,6-dimethylphenyl)-11-isobutyl-2,2-dioxo-9-oxa-2λ^6-thia-3,5,12,19-tetrazatricyclo[12.3.1.14,8]nonadeca-1(18),4(19),5,7,14,16-hexaen-13-one], the “Ent. A Max Activity (%)” value was “+++ (+++ is >60%)” and the EC50 is < 1000 nM.
The like results for `Cc1cccc(C)c1-c1cc2nc(n1)NS(=O)(=O)c1cccc(c1)C(=O)N(C1CC(C(=O)O)C1)[C@H](CC(C)C)CO2` (stereo partly drawn) [Compound 35, 3-[(11R)-6-(2,6-dimethylphenyl)-11-isobutyl-2,2,13-trioxo-9-oxa-2λ^6-thia-3,5,12,19-tetrazatricyclo[12.3.1.14,8]nonadeca-1(18),4(19),5,7,14,16-hexaen-12-yl]cyclobutanecarboxylic acid] were, in that order, “+++ (+++ is >60%)” and 3000 to 30000 nM.
The corresponding values for `Cc1cccc(C)c1-c1cc2nc(n1)NS(=O)(=O)c1cccc(c1)C(=O)N(C1CC(C(=O)N3CCN(C)CC3)C1)[C@H](CC(C)C)CO2` (stereo partly drawn) [Compound 36, (11R)-6-(2,6-dimethylphenyl)-11-isobutyl-12-[3-(4-methylpiperazine-1-carbonyl)cyclobutyl]-2,2-dioxo-9-oxa-2λ^6-thia-3,5,12,19-tetrazatricyclo[12.3.1.14,8]nonadeca-1(18),4(19),5,7,14,16-hexaen-13-one] are “+++ (+++ is >60%)” and < 1000 nM.
Consider `COC(=O)N1CCC2(CC1)CC(N1C(=O)c3cccc(c3)S(=O)(=O)Nc3nc(cc(-c4c(C)cccc4C)n3)OC[C@@H]1CC(C)C)C2` [Compound 113, Methyl 2-[(11S)-6-(2,6-dimethylphenyl)-11-isobutyl-2,2,13-trioxo-9-oxa-2λ^6-thia-3,5,12,19-tetrazatricyclo[12.3.1.14,8]nonadeca-1(18),4(19),5,7,14,16-hexaen-12-yl]-7-azaspiro[3.5]nonane-7-carboxylate], for which the “Ent. A Max Activity (%)” value is listed as “++ (++ is 30-60%)” and the EC50 is < 1000 nM.
The like results for `Cc1cccc(C)c1-c1cc2nc(n1)NS(=O)(=O)c1cccc(c1)C(=O)N(C1CC3(CCN(C)CC3)C1)C[C@@H](C)O2` [Compound 179, (10R)-6-(2,6-Dimethylphenyl)-10-methyl-12-(7-methyl-7-azaspiro[3.5]nonan-2-yl)-2,2-dioxo-9-oxa-2λ^6-thia-3,5,12,19-tetrazatricyclo[12.3.1.14,8]nonadeca-1(18),4(19),5,7,14,16-hexaen-13-one] were, in that order, “+++ (+++ is >60%)” and 1000 to 3000 nM.
Consider `COC(=O)N1CCC2(CC1)CC(N1C(=O)c3cccc(c3)S(=O)(=O)Nc3cc(cc(-c4c(C)cccc4C)n3)OC[C@H]1CC(C)C)C2` [Compound 196, Methyl 2-[(11R)-6-(2,6-dimethylphenyl)-11-isobutyl-2,2,13-trioxo-9-oxa-2λ^6-thia-3,5,12-triazatricyclo[12.3.1.14,8]nonadeca-1(18),4(19),5,7,14,16-hexaen-12-yl]-7-azaspiro[3.5]nonane-7-carboxylate], for which the “Ent. A Max Activity (%)” value is “+++ (+++ is >60%)” and the EC50 is < 1000 nM.
The like results for `Cc1cccc(C)c1-c1cc2nc(n1)NS(=O)(=O)c1cccc(c1)C(=O)N(C1CC3(CC3)C1)C(CC(C)(C)C(F)(F)F)CO2` (centres unmarked) [Compound 216] were, in that order, “+++ (+++ is >60%)” and < 1000 nM.
The like results for `COC(=O)N1CCC2(CC1)CC(N1C[C@@H](C)Oc3cc(-c4c(C)cccc4C)nc(n3)NS(=O)(=O)c3cccc(c3)C1=O)C2` [Compound 312] were, in that order, “+++ (+++ is >60%)” and < 1000 nM.
The like results for `Cc1cccc(C)c1-c1cc2nc(n1)NS(=O)(=O)c1cccc(c1)C(=O)N([C@H]1CC3(C[C@H](N(C)C)C3)C1)[C@H](CC(C)C)CO2` (some centres unmarked) [Compound 314] were, in that order, “+++ (+++ is >60%)” and < 1000 nM.
`COC(=O)N1CCCC2(CC(N3C(=O)c4cccc(c4)S(=O)(=O)Nc4nc(cc(-c5c(C)cccc5C)n4)OC[C@H]3CC(C)C)C2)C1` (some centres unmarked) [Compound 324]: the “Ent. A Max Activity (%)” value is “+++ (+++ is >60%)” and the EC50 is < 1000 nM.
The like results for `COC(=O)N1CCC2(CC(N3C(=O)c4cccc(c4)S(=O)(=O)Nc4nc(cc(-c5c(C)cccc5C)n4)OC[C@H]3CC(C)C)C2)C1` (some centres unmarked) [Compound 325] were, in that order, “+++ (+++ is >60%)” and < 1000 nM.
For the compound `COC(=O)N1CCCC2(CC(N3C(=O)c4cccc(c4)S(=O)(=O)Nc4nc(cc(-c5c(C)cccc5C)n4)OC[C@H]3CC(C)C)C2)C1` (some centres unmarked) [Compound 327], the “Ent. A Max Activity (%)” value is on record as “+++ (+++ is >60%)” and the EC50 is < 1000 nM.
The corresponding values for `COC(=O)N1CCC2(CC(N3C(=O)c4cccc(c4)S(=O)(=O)Nc4nc(cc(-c5c(C)cccc5C)n4)OC[C@H]3CC(C)C)C2)C1` (some centres unmarked) [Compound 328] are “+++ (+++ is >60%)” and < 1000 nM.
The corresponding values for `Cc1cccc(C)c1-c1cc2nc(n1)NS(=O)(=O)c1cccc(c1)C(=O)N([C@H]1C[C@]3(CCN(C)C3)C1)[C@H](CC(C)C)CO2` [Compound 330] are “+++ (+++ is >60%)” and < 1000 nM.
On to `Cc1cccc(C)c1-c1cc2nc(n1)NS(=O)(=O)c1cccc(c1)C(=O)N([C@H]1C[C@]3(CCCCN3C)C1)[C@H](CC(C)C)CO2` [Compound 331], for which the “Ent. A Max Activity (%)” value is “+++ (+++ is >60%)” and the EC50 was < 1000 nM.
The like results for `Cc1cccc(C)c1-c1cc2nc(n1)NS(=O)(=O)c1cccc(c1)C(=O)N([C@H]1C[C@]3(CCCN(C)C3)C1)[C@H](CC(C)C)CO2` [Compound 332] were, in that order, “+++ (+++ is >60%)” and < 1000 nM.

What is called EC50 is the midpoint of the concentration-response curve.

The record behind these values is patent publication US20230382925A1, “MODULATORS OF CYSTIC FIBROSIS TRANSMEMBRANE CONDUCTANCE REGULATOR” (VERTEX PHARMACEUTICALS INCORPORATED, priority 2020, published 2023).
